*1 amine or outer side, *2 acyl side, *3 side chain or, on linkers, in order; H or OH if unused. Where a SMILES comes first, the peptide text is derived from it. Where no end group is shown, it is not given here. Side-chain parts run from the residue outwards. [ ]: non-standard residue; d: D form. The star is where a group is joined. Phe(4-NH2) = Nc1ccc(C[C@H](N)C(=O)O)cc1; γGlu = O=C(O)[C@H](CCC(=O)[*:2])N[*:1]; Palmitoyl = CCCCCCCCCCCCCCCC(=O)*; Aib = CC(C)(N)C(=O)O
Tests used:
[1] = target: T1, GIP receptor (Homo sapiens, UniProt P48546); assay: cAMP induction, firefly luciferase reporter assay in HEK293 cells co-transfected with GIP receptor; type: cell-based
T1 sequence (P48546 22-466): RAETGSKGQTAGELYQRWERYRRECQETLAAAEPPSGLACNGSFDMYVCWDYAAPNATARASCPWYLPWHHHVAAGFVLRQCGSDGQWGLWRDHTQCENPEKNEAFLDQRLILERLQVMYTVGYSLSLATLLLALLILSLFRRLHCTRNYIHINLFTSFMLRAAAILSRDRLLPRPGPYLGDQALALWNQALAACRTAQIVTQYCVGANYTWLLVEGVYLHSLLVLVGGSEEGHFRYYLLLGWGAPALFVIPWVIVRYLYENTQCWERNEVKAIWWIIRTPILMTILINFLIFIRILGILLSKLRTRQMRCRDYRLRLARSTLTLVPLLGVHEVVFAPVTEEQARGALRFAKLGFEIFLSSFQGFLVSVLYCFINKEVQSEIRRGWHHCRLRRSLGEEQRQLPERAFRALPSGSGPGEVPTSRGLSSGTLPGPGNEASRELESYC

[2] = target: T2, GLP-1 receptor (Homo sapiens, UniProt P43220); assay: cAMP induction, firefly luciferase reporter assay in HEK293 cells co-transfected with GLP-1 receptor; type: cell-based
T2 construct: expressed in transfected cells; host or cells: HEK293
T2 sequence (P43220 24-463): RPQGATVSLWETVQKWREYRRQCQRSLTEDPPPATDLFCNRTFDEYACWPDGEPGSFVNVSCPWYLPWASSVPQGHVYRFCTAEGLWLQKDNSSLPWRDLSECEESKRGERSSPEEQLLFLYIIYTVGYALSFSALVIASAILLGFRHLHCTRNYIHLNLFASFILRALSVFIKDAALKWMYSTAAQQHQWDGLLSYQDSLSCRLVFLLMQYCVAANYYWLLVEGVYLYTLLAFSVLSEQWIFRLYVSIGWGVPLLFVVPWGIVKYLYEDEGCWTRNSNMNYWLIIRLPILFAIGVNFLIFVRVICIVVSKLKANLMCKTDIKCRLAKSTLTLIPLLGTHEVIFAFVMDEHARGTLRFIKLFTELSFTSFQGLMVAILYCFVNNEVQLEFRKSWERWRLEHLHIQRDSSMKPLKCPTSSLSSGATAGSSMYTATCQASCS
Source text: This example describes an exemplary method of testing the biological activity of the peptides of the present disclosures, which method involves assaying cAMP synthesis.

[3] = EC50 (nM) at GIP Receptor, Table 9, Example 15
[4] = EC50 (nM) at GLP-1 Receptor, Table 9, Example 15
[5] = EC50 (nM) at GIP Receptor, Table 4, Example 9, composite of multiple different activity assays
[6] = EC50 (nM) at GLP-1 Receptor, Table 4, Example 9, composite of multiple different activity assays

Row | Compound | EC50 [1, 3] [nM] | EC50 [2, 4] [nM] | further results
1 | CC[C@H](C)[C@H](NC(=O)[C@H](CO)NC(=O)[C@H](Cc1ccc(O)cc1)NC(=O)[C@H](CC(=O)O)NC(=O)[C@H](CO)NC(=O)[C@@H](NC(=O)[C@H](Cc1ccccc1)NC(=O)[C@@H](NC(=O)CNC(=O)[C@H](CCC(N)=O)NC(=O)C(C)(C)NC(=O)[C@@H](N)Cc1c[nH]cn1)[C@@H](C)O)[C@@H](C)O)C(=O)N[C@@H](Cc1ccc(O)cc1)C(=O)N[C@@H](CC(C)C)C(=O)N[C@@H](CC(=O)O)C(=O)N[C@@H](CCCCN)C(=O)N[C@@H](CCC(N)=O)C(=O)N[C@@H](C)C(=O)N[C@@H](C)C(=O)NC(C)(C)C(=O)N[C@@H](CCC(=O)O)C(=O)N[C@@H](Cc1ccccc1)C(=O)N[C@H](C(=O)N[C@@H](CC(N)=O)C(=O)N[C@@H](Cc1c[nH]c2ccccc12)C(=O)N[C@@H](CC(C)C)C(=O)N[C@@H](CC(C)C)C(=O)N[C@@H](C)C(=O)NCC(=O)NCC(=O)N1CCC[C@H]1C(=O)N[C@@H](CO)C(=O)N[C@@H](CO)C(=O)NCC(=O)N[C@@H](C)C(=O)N1CCC[C@H]1C(=O)N1CCC[C@H]1C(=O)N1CCC[C@H]1C(=O)N[C@@H](CO)C(=O)N[C@@H](CS)C(N)=O)C(C)C [compound 52] (H-H[Aib]QGTFTSDYSIYLDKQAA[Aib]EFVNWLLAGGPSSGAPPPSC-NH2) |  |  | EC50 ([1]; EC50 (nM) at GIP Receptor, Table 6, Example 12): 0.006 nM; EC50 ([2]; EC50 (nM) at GLP-1 Receptor, Table 6, Example 12): 0.005 nM
2 | CCCCCCCCCCCCCCCC(=O)NCCCC[C@H](NC(=O)[C@H](CO)NC(=O)[C@@H]1CCCN1C(=O)[C@@H]1CCCN1C(=O)[C@@H]1CCCN1C(=O)[C@H](C)NC(=O)CNC(=O)[C@H](CO)NC(=O)[C@H](CO)NC(=O)[C@@H]1CCCN1C(=O)CNC(=O)CNC(=O)[C@H](C)NC(=O)[C@H](CC(C)C)NC(=O)[C@H](CC(C)C)NC(=O)[C@H](Cc1c[nH]c2ccccc12)NC(=O)[C@H](CC(N)=O)NC(=O)[C@@H](NC(=O)[C@H](Cc1ccccc1)NC(=O)[C@H](CCC(=O)O)NC(=O)C(C)(C)NC(=O)[C@H](C)NC(=O)[C@H](C)NC(=O)[C@H](CCC(N)=O)NC(=O)[C@H](CCCCN)NC(=O)[C@H](CC(=O)O)NC(=O)[C@H](CC(C)C)NC(=O)[C@H](Cc1ccc(O)cc1)NC(=O)[C@@H](NC(=O)[C@H](CO)NC(=O)[C@H](Cc1ccc(O)cc1)NC(=O)[C@H](CC(=O)O)NC(=O)[C@H](CO)NC(=O)[C@@H](NC(=O)[C@H](Cc1ccccc1)NC(=O)[C@@H](NC(=O)CNC(=O)[C@H](CCC(=O)O)NC(=O)C(C)(C)NC(=O)[C@@H](N)Cc1ccc(O)cc1)[C@@H](C)O)[C@@H](C)O)[C@@H](C)CC)C(C)C)C(=O)NCC(N)=O [SEQ ID NO: 139] | 0.001 | 0.005 | 
3 | CCCCCCCCCCCCCCCC(=O)N[C@@H](CCC(=O)NCCCC[C@H](NC(=O)[C@H](CC(=O)O)NC(=O)[C@H](CO)NC(=O)[C@@H](NC(=O)[C@H](Cc1ccccc1)NC(=O)[C@@H](NC(=O)CNC(=O)[C@H](CCC(=O)O)NC(=O)C(C)(C)NC(=O)[C@@H](N)Cc1c[nH]cn1)[C@@H](C)O)[C@@H](C)O)C(=O)N[C@@H](CO)C(=O)N[C@@H](CCCCN)C(=O)N[C@@H](Cc1ccc(O)cc1)C(=O)N[C@@H](CC(C)C)C(=O)N[C@@H](CC(=O)O)C(=O)N[C@@H](CCC(=O)O)C(=O)N[C@@H](CCCNC(=N)N)C(=O)N[C@@H](CCCNC(=N)N)C(=O)N[C@@H](C)C(=O)NC(C)(C)C(=O)N[C@@H](CCC(=O)O)C(=O)N[C@@H](Cc1ccccc1)C(=O)N[C@H](C(=O)N[C@@H](CCC(N)=O)C(=O)N[C@@H](Cc1c[nH]c2ccccc12)C(=O)N[C@@H](CC(C)C)C(=O)N[C@@H](CC(C)C)C(=O)N[C@@H](CC(=O)O)C(=O)N[C@H](C(N)=O)[C@@H](C)O)C(C)C)C(=O)O [compound 40] (H-H[Aib]EGTFTSDK([γGlu-Palmitoyl])SKYLDERRA[Aib]EFVQWLLDT-NH2; N-terminus assumed) |  |  | EC50 [1, 5]: 0.024 nM; EC50 [2, 6]: 0.006 nM
4 | CCCCCCCCCCCCCCCCCCC(CC(=O)NCCCC[C@H](NC(=O)[C@H](CO)NC(=O)[C@@H]1CCCN1C(=O)[C@@H]1CCCN1C(=O)[C@@H]1CCCN1C(=O)[C@H](C)NC(=O)CNC(=O)[C@H](CO)NC(=O)[C@H](CO)NC(=O)[C@@H]1CCCN1C(=O)CNC(=O)CNC(=O)[C@H](C)NC(=O)[C@H](CC(C)C)NC(=O)[C@H](CC(C)C)NC(=O)[C@H](Cc1c[nH]c2ccccc12)NC(=O)[C@H](CC(N)=O)NC(=O)[C@@H](NC(=O)[C@H](Cc1ccccc1)NC(=O)[C@H](CCC(=O)O)NC(=O)C(C)(C)NC(=O)[C@H](C)NC(=O)[C@H](C)NC(=O)[C@H](CCC(N)=O)NC(=O)[C@H](CCCCN)NC(=O)[C@H](CC(=O)O)NC(=O)[C@H](CC(C)C)NC(=O)[C@H](Cc1ccc(O)cc1)NC(=O)[C@@H](NC(=O)[C@H](CO)NC(=O)[C@H](Cc1ccc(O)cc1)NC(=O)[C@H](CC(=O)O)NC(=O)[C@H](CO)NC(=O)[C@@H](NC(=O)[C@H](Cc1ccccc1)NC(=O)[C@@H](NC(=O)CNC(=O)[C@H](CCC(=O)O)NC(=O)C(C)(C)NC(=O)[C@@H](N)Cc1ccc(O)cc1)[C@@H](C)O)[C@@H](C)O)[C@@H](C)CC)C(C)C)C(=O)NCC(N)=O)C(=O)O (stereo partly shown) [SEQ ID NO: 142] | 0.001 | 0.004 | 
5 | CCCCCCCCCCCCCCCC(=O)N[C@@H](CCC(=O)NCCCC[C@H](NC(=O)[C@H](CC(=O)O)NC(=O)[C@H](CO)NC(=O)[C@@H](NC(=O)[C@H](Cc1ccccc1)NC(=O)[C@@H](NC(=O)CNC(=O)[C@H](CCC(=O)O)NC(=O)C(C)(C)NC(=O)[C@@H](N)Cc1c[nH]cn1)[C@@H](C)O)[C@@H](C)O)C(=O)N[C@@H](CO)C(=O)N[C@@H](CCCCN)C(=O)N[C@@H](Cc1ccc(O)cc1)C(=O)N[C@@H](CC(C)C)C(=O)N[C@@H](CC(=O)O)C(=O)N[C@@H](CCC(=O)O)C(=O)N[C@@H](CCCNC(=N)N)C(=O)N[C@@H](CCCNC(=N)N)C(=O)N[C@@H](C)C(=O)NC(C)(C)C(=O)N[C@@H](CC(=O)O)C(=O)N[C@@H](Cc1ccccc1)C(=O)N[C@H](C(=O)N[C@@H](CCC(N)=O)C(=O)N[C@@H](Cc1c[nH]c2ccccc12)C(=O)N[C@@H](CC(C)C)C(=O)N[C@@H](CC(C)C)C(=O)N[C@@H](CC(=O)O)C(=O)NCC(=O)NCC(=O)N1CCC[C@H]1C(=O)N[C@@H](CO)C(=O)N[C@@H](CO)C(=O)NCC(=O)N[C@@H](C)C(=O)N1CCC[C@H]1C(=O)N1CCC[C@H]1C(=O)N1CCC[C@H]1C(=O)N[C@@H](CO)C(N)=O)C(C)C)C(=O)O [compound 41] (H-H[Aib]EGTFTSDK([γGlu-Palmitoyl])SKYLDERRA[Aib]DFVQWLLDGGPSSGAPPPS-NH2) |  |  | EC50 [1, 5]: 0.013 nM; EC50 [2, 6]: 0.006 nM
6 | CCCCCCCCCCCCCCCC(=O)N[C@@H](CCC(=O)N[C@@H](CCC(=O)Nc1ccc(C[C@H](NC(=O)[C@H](CC(=O)O)NC(=O)[C@H](CO)NC(=O)[C@@H](NC(=O)[C@H](Cc2ccccc2)NC(=O)[C@@H](NC(=O)CNC(=O)[C@H](CCC(=O)O)NC(=O)C(C)(C)NC(=O)[C@@H](N)Cc2ccc(O)cc2)[C@@H](C)O)[C@@H](C)O)C(=O)N[C@@H](CO)C(=O)N[C@H](C(=O)N[C@@H](Cc2ccc(O)cc2)C(=O)N[C@@H](CC(C)C)C(=O)N[C@@H](CC(=O)O)C(=O)N[C@@H](CCCCN)C(=O)N[C@@H](CCC(N)=O)C(=O)N[C@@H](C)C(=O)N[C@@H](C)C(=O)NC(C)(C)C(=O)N[C@@H](CCC(=O)O)C(=O)N[C@@H](Cc2ccccc2)C(=O)N[C@H](C(=O)N[C@@H](CC(N)=O)C(=O)N[C@@H](Cc2c[nH]c3ccccc23)C(=O)N[C@@H](CC(C)C)C(=O)N[C@@H](CC(C)C)C(=O)N[C@@H](C)C(=O)NCC(=O)NCC(=O)N2CCC[C@H]2C(=O)N[C@@H](CO)C(=O)N[C@@H](CO)C(=O)NCC(=O)N[C@@H](C)C(=O)N2CCC[C@H]2C(=O)N2CCC[C@H]2C(=O)N2CCC[C@H]2C(=O)N[C@@H](CO)C(N)=O)C(C)C)[C@@H](C)CC)cc1)C(=O)O)C(=O)O [SEQ ID NO: 143] (H-Y[Aib]EGTFTSD[Phe(4-NH2)]([γGlu-γGlu-Palmitoyl])SIYLDKQAA[Aib]EFVNWLLAGGPSSGAPPPS-NH2; N-terminus assumed) | 0.003 | 0.002 | 
7 | H[Aib]EGTFTSDYSKYLDERAAQDFVQWLLDGGPSSGAPPPSK([γGlu-γGlu-Palmitoyl])G-NH2 [SEQ ID NO: 171] |  |  | EC50 ([1]; EC50 (nM) at GIP receptor, Table 15, Example 23): 0.038 nM; EC50 ([2]; EC50 (nM) at GLP-1 receptor, Table 15, Example 23): 0.005 nM
8 | CCCCCCCCCCCCCCCCC(CC(=O)NCCC(=O)NCCCC[C@H](NC(=O)[C@H](CO)NC(=O)[C@@H]1CCCN1C(=O)[C@@H]1CCCN1C(=O)[C@@H]1CCCN1C(=O)[C@H](C)NC(=O)CNC(=O)[C@H](CO)NC(=O)[C@H](CO)NC(=O)[C@@H]1CCCN1C(=O)CNC(=O)CNC(=O)[C@H](C)NC(=O)[C@H](CC(C)C)NC(=O)[C@H](CC(C)C)NC(=O)[C@H](Cc1c[nH]c2ccccc12)NC(=O)[C@H](CC(N)=O)NC(=O)[C@@H](NC(=O)[C@H](Cc1ccccc1)NC(=O)[C@H](CCC(=O)O)NC(=O)C(C)(C)NC(=O)[C@H](C)NC(=O)[C@H](C)NC(=O)[C@H](CCC(N)=O)NC(=O)[C@H](CCCCN)NC(=O)[C@H](CC(=O)O)NC(=O)[C@H](CC(C)C)NC(=O)[C@H](Cc1ccc(O)cc1)NC(=O)[C@@H](NC(=O)[C@H](CO)NC(=O)[C@H](Cc1ccc(O)cc1)NC(=O)[C@H](CC(=O)O)NC(=O)[C@H](CO)NC(=O)[C@@H](NC(=O)[C@H](Cc1ccccc1)NC(=O)[C@@H](NC(=O)CNC(=O)[C@H](CCC(=O)O)NC(=O)C(C)(C)NC(=O)[C@@H](N)Cc1ccc(O)cc1)[C@@H](C)O)[C@@H](C)O)[C@@H](C)CC)C(C)C)C(=O)NCC(N)=O)C(=O)O (stereo partly shown) [SEQ ID NO: 141] | 0.002 | 0.001 | 
